How the values were obtained:
[1] = tested on: cancer cells; experiment: Effect of EGCg on cancer cell growth and apoptosis; assay type: cell-based
[2] = Clearance of EGCg from the blood; conditions: in vivo

(−)-epigallocatechin gallate [EGCg]
time cancer cells must be inhibited from growing before EGCg-induced apoptosis occurs [1]: 48 to 72 h
growth of cancer cells challenged with EGCg ([1]; 10^−7 M EGCg every two hours during the day): growth is inhibited
reversibility of the effect on cancer cell growth ([1]; EGCg removed, cells resume normal rates of growth): reversible
clearance from the blood [2]: rapidly cleared from the blood and metabolized

— patent publication US20040142048A1, “Compositions based on proanthocyanadin-catechin synergies for prevention and treatment of cancer” (priority 2004, published 2004)
